# Measurements taken from patent publication US20100022584A1, “Modulation of Glutamine Synthetase Activity” (priority 2006, published 2010).
# Positions count from the first letter of the chain named. Entries after “also recorded” stand apart in the source; their conditions may differ.
# What was measured:
# [1] = target: T1, glutamine synthetase mutant S52A S53A (Escherichia coli, UniProt P0A9C5, S53A/S54A); assay: HPLC forward-reaction glutamine synthetase assay with serine protease inhibitors; type: biochemical, E. coli; conditions: 1 mM inhibitor; for % Reduction in ADP-based Specific Activity / % Reduction in Glutamine-based Specific Activity / % Conversion: S52A S53A; for % Reduction in ADP-based Specific Activity / % Reduction in Glutamine-based Specific Activity: 60 min pre-incubation, vs no-inhibitor control, positive = activity increased; for % Conversion: glutamine-based divided by ADP-based specific activity
# T1 construct: made in house; host or cells: E. coli YMC11 (glutamine synthetase auxotroph), pBluescript II SK+
# T1 sequence (P0A9C5 2-469 S53A/S54A limits assumed): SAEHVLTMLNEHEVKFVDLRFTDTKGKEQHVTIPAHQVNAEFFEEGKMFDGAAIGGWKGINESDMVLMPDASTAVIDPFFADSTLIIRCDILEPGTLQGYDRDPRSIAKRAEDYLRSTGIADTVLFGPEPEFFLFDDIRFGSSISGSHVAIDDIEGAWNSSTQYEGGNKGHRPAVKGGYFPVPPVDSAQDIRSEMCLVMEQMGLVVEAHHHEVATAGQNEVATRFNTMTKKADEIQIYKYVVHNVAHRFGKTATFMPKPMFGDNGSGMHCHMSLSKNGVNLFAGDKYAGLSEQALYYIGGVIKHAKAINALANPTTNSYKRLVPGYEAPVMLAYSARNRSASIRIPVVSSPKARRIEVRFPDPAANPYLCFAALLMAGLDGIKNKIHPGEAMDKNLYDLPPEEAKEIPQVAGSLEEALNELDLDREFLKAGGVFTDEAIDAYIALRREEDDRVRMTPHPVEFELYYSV
# [2] = target: T2, glutamine synthetase mutant S52A S53A Y397V (Escherichia coli, UniProt P0A9C5, S53A/S54A/Y398V); assay: as above; type: biochemical, E. coli; conditions: 1 mM inhibitor; for inhibition of the enzyme (in words): HPLC assays; for % Reduction in ADP-based Specific Activity / % Reduction in Glutamine-based Specific Activity / % Conversion: Mn assay; for % Reduction in ADP-based Specific Activity / % Reduction in Glutamine-based Specific Activity: 60 min pre-incubation, vs no-inhibitor control; for % Reduction in Glutamine-based Specific Activity: positive = activity increased; for % Conversion: glutamine-based divided by ADP-based specific activity
# T2 construct: made in house; host or cells: E. coli YMC11 (glutamine synthetase auxotroph), pBluescript II SK+
# T2 sequence (P0A9C5 2-469 S53A/S54A/Y398V limits assumed): T1 sequence (P0A9C5 2-469 S53A/S54A limits assumed) with Y397V
Compound,% Reduction in ADP-based Specific Activity ([1]; Mg assay) [%],% Reduction in Glutamine-based Specific Activity ([1]; Mg assay) [%],% Conversion ([1]; Mg assay) [%],% Reduction in ADP-based Specific Activity ([1]; Mn assay) [%],% Reduction in Glutamine-based Specific Activity ([1]; Mn assay) [%],% Conversion ([1]; Mn assay) [%],"inhibition of the enzyme (in words) ([1]; S52A S53A (double serine mutant), HPLC assays)",inhibition of the enzyme (in words) [2],% Reduction in ADP-based Specific Activity [2] [%],% Reduction in Glutamine-based Specific Activity [2] [%],% Conversion [2] [%]
O=S(=O)(F)Cc1ccccc1 [PMSF],−23.74,−23.24,82,−13.56,−16.92,85,did not significantly inhibit; also recorded: not significantly inhibited,did not significantly inhibit,−4.83,−18.20,62
NCCc1ccc(S(=O)(=O)F)cc1 [AEBSF],−41.91,−17.82,115,−16.20,−7.69,98,–,appeared to cause inhibition,−5.20,−1.65,75
